According to ChEMBL document CHEMBL3507680, “University of Dundee, Gates Library screen for HepG2 cell viability”:

Experiment: Human HepG2 cell viability assay in 384 well format
Format: toxicity, cell-based
Design: dose 125 nL, time 70.5 hour; cytotoxicity at 70.5 h: concentration not given beside the values
Settings: HepG2 cells, read-out: Inhibition

Row | SMILES | cytotoxicity at 70.5 h [%]
1 | CC(C)CCC(C)NC(=O)CN1C=Nc2ccccc2S1(=O)=O (stereo not given) | -8.83
2 | CCn1cc(S(=O)(=O)NCc2ccnc(-n3ccnc3)c2)cn1 | -6.31
3 | Cc1cc(NC(=O)Cn2cnc(-c3cccs3)cc2=O)sn1 | 11.1
4 | OC(CN1CCC(c2ccn[nH]2)CC1)c1cccc(C(F)(F)F)c1 (stereo not given) | -7.35
5 | COCCN(Cc1nc2c(cnn2C)c(=O)[nH]1)C(C)COC (stereo not given) | -7.19
6 | CCc1ncc2c(n1)CN(CC(=O)Nc1nnc(C)s1)CC2 | -3.21
7 | COCC(C)NC(=O)NCCc1cccc(OC)c1O (stereo not given) | 8.57
8 | CC(NC(=O)CCn1cccn1)c1cccs1 (stereo not given) | -0.167
9 | O[C@]12CC[C@H](CC1)N(Cc1ccc(F)cc1)C2CN1CCOCC1 (stereo not given in full) | -7.54
10 | CCOCCC(=O)N1CCCC(c2cc(C(F)(F)F)[nH]n2)C1 (stereo not given) | -10.6
11 | Cc1cc(C(=O)N2CC(=O)Nc3cnccc32)c(Cl)cc1F | -1.87
12 | CS(=O)(=O)NCCN1CCCC1c1ccc(Cl)cc1 (stereo not given) | 12
13 | CN(C)C1CCC2(CCN(Cc3nccn3C)CC2)c2ccccc21 (stereo not given) | -4.41
14 | CN1CCN([C@@H]2CN(C(=O)Cc3ccsc3)[C@@H]3CCCO[C@H]23)CC1 | -4.38
15 | COc1c(CNCc2ccc(C(=O)N(C)C(C)C)cc2)c(C)nn1C | 34.2
16 | Cc1ccc(C(=O)N2CCC3(CC2)COC(COc2cccnc2)C3)o1 (stereo not given) | -7.65
17 | Cc1nn(C(C)C)c(C)c1NC(=O)c1ccncc1 | -5.05
18 | Cn1cnnc1-c1ccnc(NCc2ccc(Br)cc2)c1 | -4.99
19 | Cc1cc(CN2CCN(CC3CC3)[C@@H]3CS(=O)(=O)C[C@@H]32)ccc1F | 6.58
20 | CC(=O)N1CCCN(C(=O)NCC2(c3cccs3)CCCC2)CC1 | -4.55
21 | O=c1[nH]nc(C2CC2)n1-c1cccc(Cl)c1 | -4.41
22 | CCC(O)(CNCc1ccncc1)c1ccc(Br)cc1 (stereo not given) | 1.46
23 | COCCCNc1c(-c2ccccc2)c(=O)c1=O | -8.63

Row | SMILES | cytotoxicity at 70.5 h [%]
24 | COc1ccc(CN2CCc3ncnc(OC(C)C)c3CC2)cc1 | 43.9
25 | CC(=O)c1ccc(S(=O)(=O)NCc2cccnc2N(C)C)cc1 | -3.14
26 | Cc1cnc2n(c1=O)C(CC(=O)NCc1ccc(F)cc1)CS2 (stereo not given) | -6.08
27 | CC(C)(C)C(=O)N[C@H]1CC[C@H](Nc2nccc(-c3ccncc3)n2)C1 | -6.97
28 | O=C(NCCNc1ncccn1)N(Cc1ccc(F)cc1F)C1CC1 | -18.1
29 | CN(CC1Cc2ccccc2CN1C)C(=O)CSc1ccccn1 (stereo not given) | -15.7
30 | OCCC1(NCc2ccc(-n3cccn3)cc2)CCOCC1 | -2.65
31 | CC(C)N1CCOCC2(CCCN(C(=O)CCc3cccnc3)C2)C1 (stereo not given) | -6.39
32 | COc1ccc(N(c2ccccc2)c2ccc(C(=O)O)s2)cc1 | -0.368
33 | CN(Cc1ccc2c(c1)OCO2)C(=O)c1ccc(C2CCCNC2)cc1 (stereo not given) | -6.12
34 | CC1CC(=O)c2cc(C(=O)N3CCc4ccccc43)c(=O)[nH]c2C1 (stereo not given) | -1.11
35 | O=C(NC1CC1)N1CCN(c2cnccn2)CC1 | -1.17
36 | Cc1nc(NCC23CCCN2CCC3)cc(C2CCCNC2)n1 (stereo not given) | -4.8
37 | O=C(Cn1cc(Cl)cn1)Nc1ccc2c(c1)OCCCO2 | 25.9
38 | CCOCCC(=O)Nc1cc(C)cnc1OC | 14.7
39 | CN(C(=O)Nc1ccncc1)C1CCN(c2ccc(Cl)cc2)CC1 | 1.01
40 | CC(C)c1sc(Br)nc1C(=O)NCc1cccnc1 | 23.2
41 | Cc1nn(C)c(N(C)C)c1CNCCC(=O)NC1CCCC1 | 3.14
42 | O=S(=O)(c1ccccc1F)N1CCC(Oc2cccnn2)CC1 | -7.73
43 | COCCCN1CCC(NC(=O)C2CC2)CC1 | -4.57
44 | O=C1COC2(CCN(C(=O)c3cnccn3)CC2)CN1CC1CC1 | 18.8
45 | CS(=O)(=O)c1ccc(OCCNCc2cccc(F)c2)cc1 | -2.08
46 | Cc1cc2n(n1)CC(CNCc1ccc(-n3cccn3)cc1)CN2 (stereo not given) | -0.128

Row | SMILES | cytotoxicity at 70.5 h [%]
47 | O=C(Cc1ccon1)NC1CCCN(c2ccccc2F)C1=O (stereo not given) | 3.76
48 | CC(=O)Nc1ccc(CNC(=O)CNCc2sc(C)nc2C)cc1 | 6.71
49 | Cn1cnc(S(=O)(=O)NCCCN2CCCCCC2=O)c1Cl | 0.779
50 | CCO[C@H]1CN(CC2CC2)[C@@H]2CCCO[C@H]12 | 1.44
51 | O=C(c1ccncc1)N1CCCC1c1nc(O)cc(-c2ccccn2)n1 (stereo not given) | -2.92
52 | COCCOc1ncccc1C(=O)N(C)c1nccs1 | -14.2
53 | CN(c1ccc2ccccc2c1)S(=O)(=O)c1cc(C(=O)O)cs1 | -8.18
54 | COc1ccccc1OCC(=O)NCC(O)(c1ccccc1)C1CC1 (stereo not given) | -3.14
55 | c1cc(-c2nc3c(c(NCCn4ccnn4)n2)CCNCC3)ccn1 | 0.89
56 | COCc1cccc(NC(=O)NCCCN(C)S(C)(=O)=O)c1 | -10.1
57 | O=C(NCC(=O)N1CCCCC1)c1ccoc1 | -7.84
58 | Cc1ccc(S(=O)(=O)NC[C@H]2OC[C@@H](NCc3ccncc3)[C@@H]2O)cc1 | -8.05
59 | CC(C)n1cc(S(=O)(=O)N2CCCCCC2)cn1 | -2.52
60 | CCCN(CCOC)c1nc(C)nc2sccc12 | 13.4
61 | CCc1nsc(N2CCCN(CC(=O)N(C)C3CC3)CC2)n1 | -6.24
62 | CC(C)Nc1oc(-c2ccc(S(=O)(=O)N(C)C)o2)nc1C#N | -8.63
63 | CN(Cc1ccsc1)C(=O)c1ccc(S(=O)(=O)NC(C)(C)C)cc1 | -7.83
64 | Cc1ccc(N2CCCC(NCc3sccc3C)C2)nn1 (stereo not given) | -7.95
65 | CC(C)N(CCCNC(=O)C1CC1)S(C)(=O)=O | -4.77
66 | Cc1nc(C)c(-c2ccn(CC(=O)Nc3cnn(C)n3)n2)s1 | 8.07
67 | Cc1cccc(CN2CC[C@H]3[C@@H]2CC(=O)N3CC2CC2)n1 | -9.45
68 | COC[C@H]1CNC(=O)[C@@H]2CCN(Cc3ccc(F)cc3)CC[C@H]12 | -1.94
69 | O=C(CCn1cncn1)N1CCCC(CO)(CCCc2ccccc2)C1 (stereo not given) | 15.8

Row | SMILES | cytotoxicity at 70.5 h [%]
70 | CCCS(=O)(=O)NC(=O)c1ccc(Br)o1 | 1.65
71 | COc1ccc(C)cc1C(C)NC(=O)NCCCn1cncn1 (stereo not given) | -10.9
72 | CN(C)C(=O)COC[C@]12COC[C@H]1CN(Cc1ccccc1)C2 | -2.22
73 | CCc1csc(C2CCCN(C(=O)c3ncccn3)C2)n1 (stereo not given) | -0.847
74 | CCN(C)c1ccc(CNC(=O)c2cc(C(N)=O)cs2)cc1F | -8.22
75 | Cc1ccc(CN2CC[C@H]3CO[C@H](CN(C)Cc4ccco4)[C@H]3C2)s1 | 4.82
76 | CCc1noc(C(C)N2CCc3c(ncn3C3CC3)C2)n1 (stereo not given) | 28.1
77 | CCc1noc(CN2CCN(C(=O)N(CC)CC)CC2)n1 | -10
78 | Cn1ncnc1NCc1ccc(Cl)cc1 | -9.65
79 | COc1ccccc1C(=O)Nc1ccc(OC2CCN(C)CC2)cc1 | -6.64
80 | CCn1ncnc1CN1CCOC(Cc2cccc3ccccc23)C1 (stereo not given) | -7.56
81 | Cc1nn(C)c(Cl)c1S(=O)(=O)N(CC(N)=O)CC(C)C | -16.6
82 | O=C(c1ccc2c(c1)CCC2)N1CCC(c2n[nH]c(C3CC3)n2)CC1 | -7.78
83 | CC(=O)c1cccc(OCC(=O)NS(=O)(=O)c2cccs2)c1 | -6.58
84 | COCCO[C@H]1CCN(Cc2cccnc2)[C@H]1Cc1cccnc1 | 17.5
85 | CCCNC(=O)c1nc2c(o1)CN(C(=O)CN(C)C)C2 | -8.52
86 | Cc1nc(CN2CCC3(CCCN(Cc4cccnc4)C3)C2=O)cs1 (stereo not given) | 26.7
87 | Cc1nc(CO[C@@H]2CC[C@H]3[C@H]2OCCN3Cc2cccnc2)cs1 | 14.5
88 | Cc1ccc(C)c(NC(=O)Cn2cc(I)cn2)c1 | -13.2
89 | O=C(COc1coc(CN2CCCCC2)cc1=O)c1ccccc1 | -18.6
90 | O=C(c1cccc2cn[nH]c12)N1CCCC1c1noc(C2CC2)n1 (stereo not given) | -2.84
91 | Cc1cc(CN2CCC(CNC(=O)c3noc4c3CCCC4)C2)[nH]n1 (stereo not given) | 13.3
92 | Cc1cnc(CCN(C)C(=O)c2cccc(C)c2O)s1 | -5.87

Row | SMILES | cytotoxicity at 70.5 h [%]
93 | CC(NC(=O)N1CCCN(CC(F)F)CC1)c1ccco1 (stereo not given) | -8.42
94 | O=S1(=O)N(c2ccccc2)C[C@H](O)[C@]12CCNC2 | -2.92
95 | CCN(CC)Cc1ccc(CNC(=O)C(C)(C)n2cc(Br)cn2)cc1 | 15.4
96 | CC(=O)N(C)Cc1ccccc1NC(=O)N(C)CCc1cccs1 | -3.06
97 | FC(F)(F)C1CN(Cc2cnc3c(-c4ccccc4)cnn3c2)CCO1 (stereo not given) | -7.58
98 | Fc1ccc(Oc2nccnc2C2CCN(C3CCOCC3)CC2)cc1 | -3.07
99 | O=C(O)Cn1ccc(=O)c2ccc(Cl)cc21 | -7.34
100 | CNC(=O)C1CCN(Cc2nc(-c3ccc(SC)cc3)oc2C)C1 (stereo not given) | -6.93
101 | CN(C(=O)CNC(=O)CC(C)(C)C)C1CCN(c2ccccn2)CC1 | -6.78
102 | Cc1cnc(C(=O)NCC2Cc3ccccc3O2)cn1 (stereo not given) | 1.1
103 | CN(Cc1ccncc1)C(=O)CCNS(=O)(=O)c1cccnc1 | 2.92
104 | CNc1cc2c(nn1)CCN(C(=O)c1cccc3c1OCO3)C2 | -16.7
105 | O=C(NC1CCC(C(=O)N2CCSCC2)CC1)N1CCOCC1 (stereo not given) | -5.82
106 | COc1ccc(-c2ccnc(C3CCNCC3)c2)cc1 | -5.12
107 | CSCCC(NC(N)=O)C(=O)NCc1cnn(-c2ccccc2)c1 (stereo not given) | 8.76
108 | CCn1cc(S(=O)(=O)N2CCCC3(CC=CNC3=O)C2)c(C)n1 (stereo not given) | -1.52
109 | c1coc(CN2CCO[C@@]3(CCC[C@@H]3COCc3nccs3)C2)c1 | -13.3
110 | Cc1occc1C(=O)N1CCC(C(O)c2ccc(Cl)cc2)CC1 (stereo not given) | 5.5
111 | O=C(CCNc1ncccn1)N1CCCN(c2nccs2)CC1 | 15.2
112 | CC(NC(=O)NCc1ccoc1)c1ccc2c(c1)CCC(=O)N2 (stereo not given) | 14.8
113 | O=C(NCc1ccc(CO)cc1)C1CCOc2ccccc2C1 (stereo not given) | 4.54
114 | COc1cc(CN(C)Cc2cccnc2)c(SC)cc1OC | -8.67
115 | Cc1cccnc1N1CCN(C(=O)CCc2ccccn2)CC1 | 20.1
